Source: paper PMC10302582, “Unveiling the Potential of BenzylethyleneAryl–Urea Scaffolds for the Design of New Onco Immunomodulating Agents” (Pharmaceuticals, 2023)
Like-named read-outs stand apart in the source and are kept apart here.

Tests used:
CD11b = CD11b detection on membrane of co-cultured THP-1; assay type: cell-based, human; conditions: for % CD11b expression in membrane of THP-1: 1:5 HT-29/THP-1, 24 h, relative to non-treated co-cultured THP-1; for reduction of CD11b expression: THP-1 co-cultured with HT-29
Text: (§1) Reducing the expression of CD11b has become a promising target for immune modulation in anticancer therapies. For that reason, we decided to study the effect of our compounds on CD11b in THP-1 cells co-cultured with HT-29. We also determined the relative amount of CD80, a common surface marker for monocytes.
(§2) The results are related to non-treated THP-1 cells when they were co-cultured with HT-29.
(§3) The action of the compounds on CDs in co-cultured THP-1 immune cells with cancer cell line HT-29 was tested by treating them with the compounds for 24 h/48 h (see Section 4.2.5). Surface CD11b and CD80 was determined by collecting THP-1 with trypsin, fixing with formaldehyde and staining with FITC Mouse monoclonal Anti-Human CD80 (Sigma-Aldrich SAB4700142) and Alexa Fluor® 647 Rabbit monoclonal Anti-CD11b (Merck #MABF366, Rahway, NJ, USA).

[1] = test system: A-549 (pulmonary adenocarcinoma); assay: MTT cell proliferation assay, A-549; assay type: cell-based; conditions: Homo sapiens, read-out: IC50 A-549
Experimental: (§4) After the supernatant was discarded, we solved the formazan crystal in 100 µL of DMSO. The absorbance was then registered at 550 nm using a plate lector. For all concentrations of any compound, cell viability was expressed as the percentage of the ratio between the mean absorbance of the treated cells and the mean absorbance of the untreated cells. Three to five experiments were performed to establish the IC50 values (i.e., concentration half inhibiting cell proliferation, we used GraphPad Prism 7 software).

Jurkat T-cells = assay: MTT cell proliferation assay, Jurkat T-cells; assay type: cell-based; conditions: Homo sapiens, Jurkat, 48 h treatment
Experimental: (§5) The action on cell proliferation caused by our developed compounds was studied using an MTT assay using the human tumor cell lines of HT-29 (colon adenocarcinoma) and A-549 (pulmonary adenocarcinoma), as well as toward the non-tumor cell line HEK-293 (human embryonic kidney cells), Jurkat T-cells and human microvessel endothelial cells (HMEC-1).
(§6) In general, 5 × 10^3 (HT-29, A549, HMEC-1, Jurkat and HEK-293) cells per well were seeded in 96-well plates with 1:1 dilutions of the compounds in a volume of 100 μL of the cell media. The 3-(4,5-dimethylthiazol-2-yl)-2,5-diphenyltetrazolium bromide (MTT; Sigma Chemical Co.) dye exclusion assay was performed, and after 48 h (37 °C, 5% CO2 in a humid atmosphere), 10 μL of MTT (5 mg/mL in phosphate-buffered saline, PBS) was added to each well and incubated for 3 h at 37 °C. After the supernatant was discarded, we solved the formazan crystal in 100 µL of DMSO. The absorbance was then registered at 550 nm using a plate lector. For all concentrations of any compound, cell viability was expressed as the percentage of the ratio between the mean absorbance of the treated cells and the mean absorbance of the untreated cells. Three to five experiments were performed to establish the IC50 values (i.e., concentration half inhibiting cell proliferation, we used GraphPad Prism 7 software).

HMEC-1 endothelial cells = assay: Microvessel formation inhibition assay on Matrigel; assay type: cell-based, human; conditions: HMEC-1 on Matrigel
Experimental: The antiangiogenic action of the selected compounds, as well as the reference compounds, was evaluated by determining the effect on the formation of new microvessels formed by HMEC-1 endothelial cells on a Matrigel matrix.
We used IBIDI μ-slide angiogenesis plates (IBIDI, Martins ried, Germany). The wells were coated with 15 μL of Matrigel® (10 mg/mL, BD Biosciences, San Jose, CA, USA) at 4 °C and incubated at 37 °C for at least 30 min. Afterward, the HMEC-1 cells were seeded at 2 × 10^4 cells/well in 25 μL of medium and were left for 30 min at 37 °C while they attached. Then, the compounds were added in serial doses in 25 μL of the medium, and after several hours (maximum 24 h) of incubation at 37 °C, pictures for the wells were taken to evaluate the formation of microvessels.

PD-L1 = biological target: T1, PD-L1 (Homo sapiens, UniProt Q9NZQ7); assay: PD-L1 relative quantification by flow cytometry in HT-29 cells; assay type: cell-based; conditions: for inhibition rate of PD-L1: HT-29, total PD-L1, dose not stated; for total PD-L1 (%) expression: HT-29 cells, 24 h, relative to DMSO control = 100
T1 construct: assess the effect of our new ureas on these two proteins only on the HT-29 cancer cell line through the use of flow cytometry; endogenous in cells; host or cells: HT-29
T1 sequence (Q9NZQ7 19-290): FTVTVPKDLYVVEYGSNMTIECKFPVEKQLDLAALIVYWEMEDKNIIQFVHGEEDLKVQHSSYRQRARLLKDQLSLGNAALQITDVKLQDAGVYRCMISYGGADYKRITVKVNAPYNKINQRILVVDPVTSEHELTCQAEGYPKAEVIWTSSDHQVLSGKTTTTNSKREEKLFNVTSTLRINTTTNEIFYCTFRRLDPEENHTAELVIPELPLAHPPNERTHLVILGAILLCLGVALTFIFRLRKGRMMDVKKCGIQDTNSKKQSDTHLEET
Experimental: (§7) The cells were incubated for a period of time of one day with doses of each of the selected compounds at two different doses: 20 and 100 µM concentrations.
(§8) The effects of the compounds on the target in the cancer cell lines compounds were tested using 20 and 100 µM doses. For that, 10^5 cells per well were seeded on a 12-well plate for 24 h with the corresponding dose of the tested compound in a total volume of 500 μL of cell media. To determine the total PD-L1 and VEGFR-2, the cells were collected and fixed with 4% in a PBS of formaldehyde. After this, a treatment with 0.5% in PBS Triton^TM X-100 permeabilized the membranes. Finally, the cells were treated with FITC Mouse monoclonal Anti-Human VEGFR-2 (ab184903) and Alexa Fluor® 647 Rabbit monoclonal Anti-PD-L1 (ab215251).
(§9) To determine surface PD-L1 and VEGFR-2, the assay used was similar to the above but avoided the permeabilization step (Triton^TM X-100).

CD80 = CD80 detection on membrane of co-cultured THP-1; assay type: cell-based, human; conditions: 1:5 HT-29/THP-1; 24 h; relative to non-treated co-cultured THP-1
Text: as §1, §2, §3

VEGFR-2 = biological target: T2, VEGFR-2 (Homo sapiens, UniProt P35968); assay: VEGFR-2 relative quantification by flow cytometry in HT-29 cells; assay type: cell-based; conditions: for total VEGFR-2 (%) expression: HT-29 cells, 24 h, relative to DMSO control = 100
T2 construct: assess the effect of our new ureas on these two proteins only on the HT-29 cancer cell line through the use of flow cytometry; endogenous in cells; host or cells: HT-29
T2 sequence (P35968 20-1356): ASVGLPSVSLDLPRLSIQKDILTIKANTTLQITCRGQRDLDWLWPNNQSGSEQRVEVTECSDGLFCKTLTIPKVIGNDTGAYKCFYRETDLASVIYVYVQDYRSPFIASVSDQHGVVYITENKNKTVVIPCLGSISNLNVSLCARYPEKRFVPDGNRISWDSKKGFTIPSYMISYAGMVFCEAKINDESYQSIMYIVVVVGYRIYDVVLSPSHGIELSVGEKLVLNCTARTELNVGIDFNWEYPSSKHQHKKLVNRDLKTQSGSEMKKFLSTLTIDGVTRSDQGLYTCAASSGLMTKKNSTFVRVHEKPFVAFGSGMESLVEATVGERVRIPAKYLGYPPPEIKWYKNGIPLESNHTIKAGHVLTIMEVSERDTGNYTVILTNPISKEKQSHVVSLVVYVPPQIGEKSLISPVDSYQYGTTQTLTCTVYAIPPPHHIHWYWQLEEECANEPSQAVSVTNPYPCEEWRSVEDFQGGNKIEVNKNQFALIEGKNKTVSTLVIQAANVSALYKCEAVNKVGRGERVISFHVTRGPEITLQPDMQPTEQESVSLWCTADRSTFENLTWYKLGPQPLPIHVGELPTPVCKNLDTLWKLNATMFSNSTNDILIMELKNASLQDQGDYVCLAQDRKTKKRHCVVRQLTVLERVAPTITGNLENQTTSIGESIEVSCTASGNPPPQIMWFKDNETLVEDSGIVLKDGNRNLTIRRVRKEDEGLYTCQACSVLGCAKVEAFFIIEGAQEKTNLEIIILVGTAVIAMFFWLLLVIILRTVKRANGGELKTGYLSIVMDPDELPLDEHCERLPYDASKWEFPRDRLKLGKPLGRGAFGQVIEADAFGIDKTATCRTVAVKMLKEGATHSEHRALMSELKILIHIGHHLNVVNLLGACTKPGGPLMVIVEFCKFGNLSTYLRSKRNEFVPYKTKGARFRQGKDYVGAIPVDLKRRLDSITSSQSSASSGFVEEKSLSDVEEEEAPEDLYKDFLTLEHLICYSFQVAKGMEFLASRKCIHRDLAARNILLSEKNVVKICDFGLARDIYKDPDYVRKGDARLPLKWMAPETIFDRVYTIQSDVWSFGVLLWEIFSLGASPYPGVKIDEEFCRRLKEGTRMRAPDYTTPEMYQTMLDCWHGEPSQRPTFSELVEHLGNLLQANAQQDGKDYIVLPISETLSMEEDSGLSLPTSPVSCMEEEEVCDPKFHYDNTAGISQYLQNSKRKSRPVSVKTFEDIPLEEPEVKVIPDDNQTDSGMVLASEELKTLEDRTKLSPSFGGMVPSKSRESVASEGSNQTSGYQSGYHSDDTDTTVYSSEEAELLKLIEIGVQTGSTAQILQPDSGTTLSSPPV
Experimental: as §7
as §8, with “membranes.” for “membranes. Finally, the cells were treated with FITC Mouse monoclonal Anti-Human VEGFR-2 (ab184903) and Alexa Fluor® 647 Rabbit monoclonal Anti-PD-L1 (ab215251).”
as §9

[2] = test system: HT-29 (colon adenocarcinoma); assay: MTT cell proliferation assay, HT-29; assay type: cell-based; conditions: Homo sapiens, read-out: IC50 HT-29
Experimental: as §4

[3] = test system: human microvessel endothelial cells (HMEC-1); assay: MTT cell proliferation assay, HMEC-1; assay type: cell-based; conditions: Homo sapiens
Experimental: as §5, §6

SMILES	% CD11b expression in membrane of THP-1 (CD11b)	IC50 ([1]; A549, MTT, 48 h treatment)	IC50 (Jurkat T-cells; 48 h)	Minimum Active Conc. inhibiting microtube formation (HMEC-1 endothelial cells)	inhibition rate of PD-L1 (PD-L1)	total PD-L1 (%) expression (PD-L1; 20 μM)	total PD-L1 (%) expression (PD-L1; 100 μM)	% CD80 expression in membrane of THP-1 (CD80)	melting point	inhibition rate of VEGFR-2 (VEGFR-2; HT-29, total VEGFR-2, dose not stated)	total VEGFR-2 (%) expression (VEGFR-2; 20 μM)	total VEGFR-2 (%) expression (VEGFR-2; 100 μM)	IC50 ([2]; HT-29, MTT, 48 h treatment)	IC50 ([3]; HMEC-1, 48 h, 48 h treatment)	reduction of CD11b expression (CD11b)	IC50 ([1]; A549, 48 h)	IC50 (Jurkat T-cells)	IC50 ([2]; HT-29, 48 h)	IC50 ([3]; HMEC-1, 48 h treatment)
COc1ccc(CCCc2cccc(NC(=O)Nc3ccc(OC)cc3)c2)cc1 [C.12]	73 ± 4%	1.2 ± 0.2 µM	> 100 µM	20 µM	around 75%	25 ± 5%	96 ± 1%	89 ± 2%	181 to 183 °C	around 75%	30 ± 10%	65 ± 45%	> 100 µM	> 100 µM	–	–	–	–	–
COc1ccc(CCCc2cccc(NC(=O)Nc3ccc(F)cc3)c2)cc1 [C.3]	67 ± 22%	> 100 µM	> 100 µM	50 µM	30%	70 ± 4%	222 ± 69%	93 ± 2%	181 to 183 °C	–	38 ± 7%	40 ± 7%	> 100 µM	> 100 µM	about 35%	–	–	–	–
COc1ccc(CCCc2cccc(NC(=O)Nc3ccccc3OC)c2)cc1 [C.14]	66 ± 3%	> 100 µM	> 100 µM	>100 µM	50%	45 ± 11%	145 ± 8%	92 ± 1%	82 to 85 °C	–	228 ± 66%	32 ± 9%	> 100 µM	> 100 µM	about 35%	–	–	–	–
COc1ccc(CCCc2cccc(NC(=O)Oc3ccccc3)c2)cc1 [C.1]	79 ± 9%	–	–	5 µM	30%	70 ± 16%	91 ± 7%	96 ± 1%	89 to 91 °C	–	51 ± 10%	191 ± 87%	–	–	–	> 100 µM	> 100 µM	> 100 µM	> 100 µM
